Usually Kd stands for the constant that tells how readily two partners part at equilibrium. Lower therefore signals higher affinity.

Bridge positions count the residues as written; N and C are the ends. Square brackets hold non-standard residues; d marks the D form. Peptide text beside a SMILES is read from it. * marks the point of attachment. NMeF = CN[C@@H](Cc1ccccc1)C(=O)O; Propionyl = CCC(=O)*

human Granzyme B (hGranzyme B), sequence (P10144 21-247): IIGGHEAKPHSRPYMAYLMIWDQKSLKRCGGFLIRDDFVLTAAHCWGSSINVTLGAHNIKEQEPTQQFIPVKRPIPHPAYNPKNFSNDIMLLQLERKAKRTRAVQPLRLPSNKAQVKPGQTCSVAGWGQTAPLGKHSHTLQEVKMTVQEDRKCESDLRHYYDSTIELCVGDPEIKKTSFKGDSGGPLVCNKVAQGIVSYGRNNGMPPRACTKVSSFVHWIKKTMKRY

This experiment addresses human Granzyme B (hGranzyme B) (Homo sapiens, UniProt P10144). Nature of the experiment: Surface Plasmon Resonance (SPR) binding to human Granzyme B. To be noted: Table 8, 25° C. As to the method: All reagents and solvents were purchased from commercial sources and used “as is” unless otherwise noted. Reaction progress and synthetic intermediate analysis were assessed by LCMS (UV detection with ESI, APCI, or other mass detection) when applicable using a MeCN/water gradient with either TFA, formic acid, or NH4HCO3 modifier. Silica gel and reverse-phase flash column chromatography were conducted with commercially available pre-packed columns. Reverse-phase preparative HPLC purification was performed on preparative HPLC instruments with UV and MS detection using a MeCN/water gradient with either TFA, formic acid, or NH4OH modifier. Unless otherwise noted, all KD data presented in tables refers to the surface plasmon resonance assay that is described in the Biological Assay section.
The kinetics of test peptide binding to human Granzyme B (hGranzyme B) was determined by SPR. All experiments were performed at 25° C. using the Biacore 8k+ instrument (Cytiva, Marlborough, MA). The Biacore 8k+ Insight Evaluation Software Version 3.0 was used to fit the data with a 1:1 binding model to determine the association rate constant ka (M^−1s^−1, where “M” equals molar and “s” equals seconds) and the dissociation rate constant kd (s^−1). These rate constants were used to calculate the equilibrium dissociation constant, KD (M)=kd/ka. To measure the binding kinetics of peptides of interest, surfaces were prepared by a capture method to a Series S Streptavidin (SA) chip using a 1×HBS-EP+ running buffer (Cytiva). hGranzyme B was diluted to 10 μg/mL in 1×HBS-EP+ and flowed over spot 2 of each flow cell on the chip at a flow rate of 10 μl/min for 20 s to achieve a level of capture of ~1100 RU. An unmodified spot 1 of each flow cell was used as a matrix binding control or reference surface. Binding kinetics were measured using single cycle kinetics at 25° C. by injecting 5 concentrations with 3-fold serial dilutions of test peptides from […] to 1 μM. Compound dilutions were performed manually in a running buffer containing 1×HBS-EP+(Cytiva), and a final concentration of 2% DMSO. The interaction analyses over hGranzyme B, were performed using a 120 s association time and a 900 s dissociation time. All experiments were conducted at a flow rate of […] with a data collection rate of 10 Hz.
Peptide dilution series included 2 zero concentration points (no compound) which were averaged and subtracted from the peptide concentration injection as DMSO control responses. Binding data acquired from the reference surface (matrix binding control) were subtracted from the binding data for hGranzyme B surface on the chip to determine specific binding. Next, the association phase data were solvent corrected to account for any signal fluctuation throughout the experiment due to subtle DMSO concentration differences. Corrected response data were analyzed using the Biacore 8k+ Evaluation Software Version 3.0 according to the manufacturer. SPR data for representative compounds of the disclosure are found in Table 8.
`CC(C)[C@@H]1NC(=O)[C@H](CC(=O)O)NC(=O)[C@H](Cc2ccc(O)cc2)NC(=O)[C@H](Cc2ccc(O)cc2)NC(=O)[C@H](Cc2ccccc2)N(C)C(=O)[C@H](Cc2ccccc2)N(C)C(=O)[C@H](Cc2ccccc2)NC(=O)CSC[C@@H](C(=O)NCC(N)=O)NC(=O)[C@H](C)NC(=O)[C@H](Cc2ccccc2)N(C)C(=O)[C@H](Cc2ccc(O)cc2)NC(=O)[C@H](C(C)C)NC(=O)[C@H](CC(=O)O)NC(=O)[C@H](C(C)C)NC(=O)[C@H](CC(=O)O)NC1=O` [Compound 14a, *F.NMeF.NMeF.Y.Y.D.V.D.V.D.V.Y.NMeF.A.*C.G-NH2] ({CH2CO}-F[NMeF][NMeF]YYDVDVDVY[NMeF]ACG-NH2; thioether N-15) returned a Kd of 0.8 nM.

With `CC(C)[C@@H]1NC(=O)[C@H](CC(=O)O)NC(=O)[C@H](C)NC(=O)[C@H](Cc2ccc(O)cc2)NC(=O)[C@H](Cc2ccccc2)N(C)C(=O)[C@H](Cc2ccccc2)N(C)C(=O)[C@H](Cc2ccccc2)NC(=O)CSC[C@@H](C(=O)NCC(=O)N[C@@H](CCCCN)C(=O)N[C@@H](CCCCN)C(N)=O)NC(=O)[C@H](Cc2c[nH]cn2)NC(=O)[C@H](Cc2ccccc2)N(C)C(=O)[C@H](Cc2ccc(O)cc2)NC(=O)[C@H](C(C)C)NC(=O)[C@H](CC(=O)O)NC(=O)[C@H](C(C)C)NC(=O)[C@H](CC(=O)O)NC1=O` [Compound 11a, *F.NMeF.NMeF.Y.A.D.V.D.V.D.V.Y.NMeF.H.*C.G.K.K-NH2] ({CH2CO}-F[NMeF][NMeF]YADVDVDVY[NMeF]HCGKK-NH2; thioether N-15), binding was characterised by a dissociation constant (Kd) of 2.1 nM.

Turning to `CC(C)[C@@H]1NC(=O)[C@H](CC(=O)O)NC(=O)[C@H](Cc2ccc(O)cc2)NC(=O)[C@H](Cc2ccc(O)cc2)NC(=O)[C@H](C)NC(=O)[C@H](Cc2ccccc2)N(C)C(=O)[C@H](Cc2ccccc2)NC(=O)CSC[C@@H](C(=O)NCC(=O)NCC(=O)N[C@@H](CCCCN)C(N)=O)NC(=O)[C@H](Cc2c[nH]cn2)NC(=O)[C@H](Cc2ccccc2)N(C)C(=O)[C@H](Cc2ccc(O)cc2)NC(=O)[C@H](C(C)C)NC(=O)[C@H](CC(=O)O)NC(=O)[C@H](C(C)C)NC(=O)[C@H](CC(=O)O)NC1=O` [Compound 9a, *F.NMeF.A.Y.Y.D.V.D.V.D.V.Y.NMeF.H.*C.G.G.K-NH2] ({CH2CO}-F[NMeF]AYYDVDVDVY[NMeF]HCGGK-NH2; thioether N-15), the Kd stood at 188 nM.

`CC(C)[C@@H]1NC(=O)[C@H](CC(=O)O)NC(=O)[C@H](C)NC(=O)[C@H](CC(=O)O)NC(=O)[C@H](Cc2ccc(O)cc2)NC(=O)[C@H](Cc2ccc(O)cc2)NC(=O)[C@H](Cc2ccccc2)N(C)C(=O)[C@H](Cc2ccccc2)N(C)C(=O)[C@H](Cc2ccccc2)NC(=O)CSC[C@@H](C(=O)NCC(N)=O)NC(=O)[C@H](Cc2c[nH]cn2)NC(=O)[C@H](Cc2ccccc2)N(C)C(=O)[C@H](Cc2ccc(O)cc2)NC(=O)[C@H](C(C)C)NC(=O)[C@H](CC(=O)O)NC1=O` [Compound 20a, *F.NMeF.NMeF.Y.Y.D.A.D.V.D.V.Y.NMeF.H.*C.G-NH2] ({CH2CO}-F[NMeF][NMeF]YYDADVDVY[NMeF]HCG-NH2; thioether N-15) displayed a Kd of 288 nM.

Compound `CCC(=O)NCCCC[C@H](NC(=O)CNC(=O)CNC(=O)[C@@H]1CSCC(=O)N[C@@H](Cc2ccccc2)C(=O)N(C)[C@@H](Cc2ccccc2)C(=O)N(C)[C@@H](Cc2ccccc2)C(=O)N[C@@H](Cc2ccc(O)cc2)C(=O)N[C@@H](Cc2ccc(O)cc2)C(=O)N[C@@H](CC(=O)O)C(=O)N[C@@H](C(C)C)C(=O)N[C@@H](CC(=O)O)C(=O)N[C@@H](C(C)C)C(=O)N[C@@H](CC(=O)O)C(=O)N[C@@H](C(C)C)C(=O)N[C@@H](Cc2ccc(O)cc2)C(=O)N(C)[C@@H](Cc2ccccc2)C(=O)N[C@@H](Cc2c[nH]cn2)C(=O)N1)C(N)=O` [Compound 4a, *F.NMeF.NMeF.Y.Y.D.V.D.V.D.V.Y.NMeF.H.*C.G.G.K(Prop)-NH2] ({CH2CO}-F[NMeF][NMeF]YYDVDVDVY[NMeF]HCGGK(Propionyl)-NH2; thioether N-15) came in with a Kd of 1.1 nM.

Source of the values: patent US20260297134A1, “CYCLIC PEPTIDES AS PET IMAGING AGENTS OF GRANZYME B” (Merck Sharp & Dohme LLC, priority 2023, published 2026).
